Like-named read-outs stand apart in the source and are kept apart here.
Biological target: recombinant SARS-CoV-2 M^pro (Severe acute respiratory syndrome coronavirus 2 (2019-nCoV) (SARS-CoV-2), UniProt P0DTD1)
Experiment: Inhibition of SARS-CoV-2 M^pro enzyme activity (fluorescent substrate assay)
Type: biochemical
Settings: inhibition of SARS-CoV-2 M^pro enzyme activity, read-out: IC50

Structure (SMILES)	IC50 (values in nM)	IC50 (values given in μM)
O=C(CC1CCC(F)(F)CC1)NCC(=O)N[C@H](Cc1ccccc1)C(=O)C(=O)NCc1nccs1 [Compound 390]	21.8 ± 1.1 nM	
CC(C)(C(=O)N[C@H](Cc1ccccc1)C(=O)C(=O)NCc1ccccn1)C(=O)N1CCC(C(F)(F)F)CC1 [Compound 325]	177 ± 2.5 nM	
C[C@@H](NC(=O)COc1ccc(Cl)c(Cl)c1)C(=O)N[C@H](Cc1ccccc1)C(=O)C(=O)NCc1ccccn1 [Compound 71]	10.9 ± 0.5 nM	
O=C(Cc1cc(OC(F)(F)F)ccc1F)NC1(C(=O)N[C@H](Cc2ccccc2)C(=O)C(=O)NCc2ccccn2)CC1 [Compound 164]	13.2 ± 0.5 nM	
C[C@@H](NC(=O)C(C#N)Cc1ccccc1)C(=O)N[C@H](Cc1ccccc1)C(=O)C(=O)NCc1ccccn1 (stereo partly drawn) [Compound 65]	21.2 ± 0.8 nM	
CC(C)(C(=O)N[C@H](Cc1ccccc1)C(=O)C(=O)NCc1ccccn1)n1cc(-c2ccc(F)cc2)cn1 [Compound 330]	195 ± 14.5 nM	
O=C(NCc1ccccn1)C(=O)[C@@H](Cc1ccccc1)NC(=O)C1(NC(=O)C2CCCCCC2)CCC1 [Compound 195]	30.8 ± 0.1 nM	
COC[C@@H](NC(=O)NC1CCC(F)(F)CC1)C(=O)N[C@H](Cc1ccccc1)C(=O)C(=O)NCc1nccs1 [Compound 551]	23.3 ± 3.1 nM	
C[C@@H](NC(=O)Cc1cc(C(C)(C)C)nn1-c1ccccc1)C(=O)N[C@H](Cc1ccccc1)C(=O)C(=O)NCc1ccccn1 [Compound 64]	16.1 ± 0.2 nM	
O=C(CNC(=O)c1cccnc1)N[C@H](Cc1ccccc1)C(=O)C(=O)NCc1nccs1 [Compound 480]		2230 ± 370 nM
CC(C)C[C@@H](NC(=O)C1CCC(F)(F)CC1)C(=O)N[C@H](Cc1ccccc1)C(=O)C(=O)NCc1ccccn1 [Compound 219]	13.4 ± 1.7 nM	
O=C(Cc1noc(-c2ccc(F)c(Cl)c2)n1)N[C@H](Cc1ccccc1)C(=O)C(=O)NCc1nccs1 [Compound 526]	28.4 ± 1.5 nM	
O=C(CNC(=O)C1CCC(F)(F)CC1)N[C@H](Cc1ccccc1)C(=O)C(=O)NCc1nccs1 [Compound 388]	62.9 ± 8.1 nM	
C[C@@H](OCc1ccccc1)C(=O)N[C@H](Cc1ccccc1)C(=O)C(=O)NCc1ncccc1Cl [Compound 34]		> 5000 nM
C[C@@H](NC(=O)C1(F)CCCCC1)C(=O)N[C@H](Cc1ccccc1)C(=O)C(=O)NCc1nccs1 [Compound 374]	20.8 ± 1.6 nM	
O=C(NCc1nccs1)C(=O)[C@@H](Cc1ccccc1)NC(=O)[C@H]1CC(F)(F)CN1C(=O)C1CCCC(F)(F)C1 (stereo partly drawn) [Compound 403]	20.4 ± 2.4 nM	
O=C(NCc1nccs1)C(=O)[C@@H](Cc1ccc(F)cc1)NC(=O)c1ccccc1 [Compound 466]		1950 ± 290 nM
CC(C)(O)[C@@H](NC(=O)C1CCC(F)(F)CC1)C(=O)N[C@H](Cc1ccccc1)C(=O)C(=O)NCc1ccccn1 [Compound 241]	42.1 ± 1.6 nM	
C[C@@H](NC(=O)CC1CCOCC1)C(=O)N[C@H](Cc1ccccc1)C(=O)C(=O)NCc1ccccn1 [Compound 135]	57.3 ± 5.3 nM	
CC(C)(OCc1ccc(F)cc1)C(=O)N[C@H](Cc1ccccc1)C(=O)C(=O)NCc1ccccn1 [Compound 22]	18.6 ± 1.7 nM	
O=C(NCc1ccccn1)C(=O)[C@@H](Cc1ccccc1)NC(=O)[C@H](NC(=O)c1ccc(F)cc1)C1CC1 [Compound 250]	42.4 ± 2.4 nM	
C[C@@H](NC(=O)C1CCc2cc(F)ccc2O1)C(=O)N[C@H](Cc1ccccc1)C(=O)C(=O)NCc1ccccn1 (stereo partly drawn) [Compound 85]	56.7 ± 2.7 nM	

Structure (SMILES)	IC50 (values in nM)	IC50 (values given in μM)
C[C@@H](OCc1ccc(Cl)c(Cl)c1)C(=O)N[C@H](Cc1ccccc1)C(=O)C(=O)NCc1ccc(Cl)cn1 [Compound 44]	21.7 ± 2.1 nM	
O=C(NCc1nccs1)C(=O)[C@@H](CC1CCCCC1)NC(=O)c1ccccc1 [Compound 468]		10500 ± 630 nM
O=C(CNC(=O)NC1CCC(F)(F)CC1)N[C@H](Cc1ccccc1)C(=O)C(=O)NCc1ccccn1 [Compound 305]	24.3 ± 0.4 nM	
CN(C)CC(NC(=O)C1CCC(F)(F)CC1)C(=O)N[C@H](Cc1ccccc1)C(=O)C(=O)NCc1ccccn1 (stereo partly drawn) [Compound 232]	60.7 ± 0.1 nM	
N#Cc1cccc(-c2cnn(CC(=O)N[C@H](Cc3ccccc3)C(=O)C(=O)NCc3nccs3)c2)c1 [Compound 496]	77 ± 4.1 nM	
CC(Oc1ccc(C2CC2(Cl)Cl)cc1)C(=O)N[C@H](C)C(=O)N[C@H](Cc1ccccc1)C(=O)C(=O)NCc1ccccn1 (stereo partly drawn) [Compound 97]	37.2 ± 4.8 nM	
C[C@@H](NC(=O)COc1cccc(C#N)c1)C(=O)N[C@H](Cc1ccccc1)C(=O)C(=O)NCc1ccccn1 [Compound 115]	37.8 ± 3 nM	
O=C(CNC(=O)C1CCCCCC1)N[C@H](Cc1ccccc1)C(=O)C(=O)NCc1cscn1 [Compound 426]	9.4 ± 0.1 nM	
O=C(Cn1cc(-c2cc(F)cc(F)c2)cn1)N[C@H](Cc1ccccc1)C(=O)C(=O)NCc1nccs1 [Compound 502]	47 ± 0.5 nM	
CC(C)(OCc1ccc(Cl)cc1)C(=O)N[C@H](Cc1ccccc1)C(=O)C(=O)NCc1ccc(Cl)cn1 [Compound 43]	20.2 ± 2.5 nM	
O=C(NCc1ccccn1)C(=O)[C@@H](Cc1ccccc1)NC(=O)[C@H]1C[C@@H]2CCCC[C@@H]2N1C(=O)C1CCC(F)(F)CC1 [Compound 265]	15.6 ± 0.1 nM	
C[C@@H](NC(=O)c1ccnc(F)c1)C(=O)N[C@H](Cc1ccccc1)C(=O)C(=O)NCc1ccccn1 [Compound 108]	66.4 ± 1.2 nM	
COc1ccc(CCC(=O)N[C@H](C)C(=O)N[C@H](Cc2ccccc2)C(=O)C(=O)NCc2ccccn2)cc1 [Compound 67]	17.3 ± 1.6 nM	
O=C(NCc1ccccn1)C(=O)[C@@H](Cc1ccccc1)NC(=O)[C@H]1Cc2ccccc2CN1C(=O)N1CCC(F)(F)CC1 [Compound 311]	16.7 ± 0.6 nM	
CCC[C@@H](NC(=O)[C@@H](C)NC(=O)C1CCC(F)(F)CC1)C(=O)C(=O)NCc1ccccn1 [Compound 358]	93.2 ± 1.1 nM	
COc1ccc(OC(F)(F)F)cc1C(=O)NC(C)(C)C(=O)N[C@H](Cc1ccccc1)C(=O)C(=O)NCc1ccccn1 [Compound 183]	21.9 ± 0.3 nM	
NC(=O)C[C@@H](NC(=O)c1ccc(F)cc1)C(=O)N[C@H](Cc1ccccc1)C(=O)C(=O)NCc1ccccn1 [Compound 254]	45.5 ± 3.1 nM	
C[C@@H](OCc1ccccc1)C(=O)N[C@H](Cc1ccccc1)C(=O)C(=O)NCc1ccncn1 [Compound 30]		> 5000 nM
COc1cccnc1CNC(=O)C(=O)[C@@H](Cc1ccccc1)NC(=O)[C@@H](C)OCc1ccccc1 [Compound 39]		> 5000 nM
O=C(CNC(=O)C1CCOCC1)N[C@H](Cc1ccccc1)C(=O)C(=O)NCc1ccccn1 [Compound 446]	414.1 ± 1.8 nM	
COC(=O)C[C@@H](NC(=O)CC1CC(F)(F)C1)C(=O)N[C@H](Cc1ccccc1)C(=O)C(=O)NCc1nccs1 [Compound 574]	14.4 ± 0.8 nM	
C[C@H](OCc1ccccc1)C(=O)N[C@H](Cc1ccccc1)C(=O)C(=O)NCc1ccccn1 [Compound 10]	113 ± 32.1 nM	

Structure (SMILES)	IC50 (values in nM)	IC50 (values given in μM)
O=C(NCc1nccs1)C(=O)[C@@H](Cc1ccccc1)NC(=O)[C@H]1COCCN1C(=O)CC1CC(F)(F)C1 [Compound 408]	14.9 ± 0.5 nM	
COC[C@@H](NC(=O)c1ccc(F)cc1)C(=O)N[C@H](Cc1ccccc1)C(=O)C(=O)NCc1ccccn1 [Compound 253]	22.4 ± 1.4 nM	
C[C@@H](NC(=O)C1CCC(C(F)(F)F)CC1)C(=O)N[C@H](Cc1ccccc1)C(=O)C(=O)NCc1ccccn1 (stereo partly drawn) [Compound 147]	13 ± 0.7 nM	
C[C@@H](NC(=O)Cc1ccc(Cl)cc1)C(=O)N[C@H](Cc1ccccc1)C(=O)C(=O)NCc1ccccn1 [Compound 76]	23 ± 1.1 nM	
O=C(NCc1ccccn1)C(=O)[C@@H](Cc1ccccc1)NC(=O)C1(C(=O)NCC2CCC(F)(F)CC2)CC1 [Compound 320]	16.7 ± 0.3 nM	
C[C@@H](OCc1cccc(OC(F)(F)F)c1)C(=O)N[C@H](Cc1ccccc1)C(=O)C(=O)NCc1ccccn1 [Compound 5]	15.4 ± 0.7 nM	
C[C@@H](NC(=O)C1CCC(F)(F)CC1)C(=O)N[C@H](Cc1ccccc1)C(=O)C(=O)NCc1cc(Cl)ccn1 [Compound 343]	18.3 ± 0.7 nM	
CC(Oc1ccc(Cl)cc1Cl)C(=O)N[C@H](C)C(=O)N[C@H](Cc1ccccc1)C(=O)C(=O)NCc1ccccn1 (stereo partly drawn) [Compound 88]	24.4 nM	
CC(C)c1ccc(OCC(=O)N[C@H](C)C(=O)N[C@H](Cc2ccccc2)C(=O)C(=O)NCc2ccccn2)cc1 [Compound 68]	12.4 ± 1.1 nM	
C[C@@H](NC(=O)c1cc(F)cc(C#N)c1)C(=O)N[C@H](Cc1ccccc1)C(=O)C(=O)NCc1ccccn1 [Compound 105]	25.3 ± 1.7 nM	
C#CCC(NC(=O)C1CCC(F)(F)CC1)C(=O)N[C@H](Cc1ccccc1)C(=O)C(=O)NCc1ccccn1 (stereo partly drawn) [Compound 231]	35.4 ± 0.2 nM	
O=C(CNC(=O)[C@@H]1C[C@@H]2[C@H](C1)C2(F)F)N[C@H](Cc1ccccc1)C(=O)C(=O)NCc1ccccn1 [Compound 152]	18.7 ± 0.6 nM	
C[C@@H](NC(=O)COc1cccnc1)C(=O)N[C@H](Cc1ccccc1)C(=O)C(=O)NCc1ccccn1 [Compound 112]	112.6 ± 0.5 nM	
O=C(NCc1nccs1)C(=O)[C@@H](Cc1ccccc1)NC(=O)[C@H]1CC(F)(F)CN1C(=O)CC1CCC(F)(F)CC1 [Compound 401]	19 ± 0.1 nM	
C[C@@H](NC(=O)C1CCC(F)(F)CC1)C(=O)N[C@H](Cc1ccccc1)C(=O)C(=O)NCc1ccc(F)cn1 [Compound 336]	15 ± 0.8 nM	
C[C@@H](NC(=O)CC1CCC(F)(F)CC1)C(=O)N[C@H](Cc1ccccc1)C(=O)C(=O)NCc1ccccn1 [Compound 111]	25.3 ± 0.2 nM	
CC(C)(NC(=O)c1cc(Cl)cc(OC(F)(F)F)c1)C(=O)N[C@H](Cc1ccccc1)C(=O)C(=O)NCc1ccccn1 [Compound 181]	16.6 ± 0.3 nM	
O=C(Cn1cc(-c2ccc(F)c(Cl)c2)c(C(F)(F)F)n1)N[C@H](Cc1ccccc1)C(=O)C(=O)NCc1nccs1 [Compound 500]	38.9 ± 0.5 nM	
O=C(NCc1ccccn1)C(=O)[C@@H](Cc1ccccc1)NC(=O)C1(NC(=O)C2CC(=O)N(c3ccccc3)C2)CCC1 (stereo partly drawn) [Compound 190]	29.6 nM	
O=C(Cn1cc(-c2c(F)ccc(F)c2F)cn1)N[C@H](Cc1ccccc1)C(=O)C(=O)NCc1nccs1 [Compound 505]	239 ± 4 nM	
O=C(NCc1ccccn1)C(=O)[C@@H](Cc1ccccc1)NC(=O)[C@H]1COCCN1C(=O)[C@H]1CC[C@@H](C(F)(F)F)CC1 [Compound 287]	24.1 nM	
O=C(Cn1cc(-c2ccc(F)c(Cl)c2)cn1)N[C@H](Cc1ccccc1)C(=O)C(=O)NCc1nccs1 [Compound 497]	36 ± 2.4 nM	

Source: patent US20250064789A1, “KETOAMIDE DERIVATIVES AND PHARMACEUTICAL USES THEREOF” (priority 2022, published 2025)
